Measurements published in patent publication US10786476B2, “Combination therapy” (IMBRIA PHARMACEUTICALS, INC., priority 2016, dated 2020).
“Also recorded” adds a separate entry of the source. Where two headings read alike, the source gives them in different places.

Test: Viscosity / flow property test (flow out of a vial, be swirled, direct drinking)
Assay type: physicochemical
Experimental: Properties of provided compounds and compositions can be readily tested, including using a number of methods widely known and practiced in the art, in accordance with the present disclosure. For example, viscosity and/or taste of provided compounds can be readily tested. In some embodiments, viscosity was assessed by testing whether a provided compound could readily flow out of a vial or be swirled. In some embodiments, viscosity was assessed by testing whether a provided compound could be administered by direct drinking by a subject. In some embodiments, taste was assessed by testing whether a provided compound could be administered by direct drinking by a subject.

SMILES | flow property for formulation | viscosity compared with glycerol (at room temperature) | viscosity compared with glycerol (temperature not stated) | flow property for formulation (listed as 1-29)
CCCCCCCC(=O)OCC(COC(=O)CCC(=O)OCC(COC(=O)CCCCCCC)OC(=O)CCCCCCC)OC(=O)CCCCCCC (stereo not shown) [Compound I-30, bis (2,3-bis(octanoyloxy)propyl) succinate] | surprisingly good; also recorded: good flow property for formulation | lower viscosity than glycerol | lower viscosity than glycerol | 
CCCC(=O)OCC(COC(=O)CCC(=O)OCC(COC(=O)CCC)OC(=O)CCC)OC(=O)CCC (stereo not shown) [Compound I-29, succinate diglycerol tetra-butyric acid] | surprisingly good | lower viscosity than glycerol | lower viscosity than glycerol | good flow property for formulation
